Structures are written as SMILES. Like-named read-outs stand apart in the source and are kept apart here.

The record followed here is US20240101568A1, “NOVEL BENZAZEPINE SPIRO DERIVATIVE” (SHANGHAI JEMINCARE PHARMACEUTICAL CO., LTD, priority 2020, published 2024).

In series [1] the target is T1, human vasopressin receptor V2R (Homo sapiens, UniProt P30518).
T1 construct: host or cells: HeLa (lentivirus infection, puromycin selection)
The series is described as follows: IC50 assay for inhibition of vasopressin-induced V2R activation (cAMP increase, HTRF) in HeLa-V2R cells. Format: cell-based. The source says: Experimental Example 1: IC50 Assay for Inhibition of Vasopressin-Induced Vasopressin Receptor V2R Activation by Compounds
Hela cell line stably expressing the human vasopressin receptor V2R (HeLa-V2R): it was constructed by Shanghai Jikai Gene Chemical Technology Co. Ltd. using lentivirus infection method and stably expressed human V2R as verified by qPCR.
DMEM cell culture medium: brand: Gibco, code: 11995065; fetal bovine serum: brand: Jitai, article No: FND500; 0.25% Trypsin: brand: Cibco, code: 25200072; Puromycin Dihydrochloride: brand: Gibco, code: A1113803; cAMP-GS HIRANGE KIT: brand: Cisbio, code: 62AM6PEC; IBMX: brand: Sigma, code: i5879; vasopressin AVP: Ji'er Biochemical (Shanghai) Co. Ltd.
Hela-V2R cells were cultured in a DMEM medium supplemented with 10% fetal bovine serum at 37° C. with 5% CO2 and continuously selected for V2R-expressing cells by adding 2 μg/mL puromycin. On the day of the experiment, cells were trypsinized, washed twice with stimulation buffer from the cAMP-GS HIRANGE kit, resuspended, and counted to 1.6×10^6 cells/ml, and IBMX was added to a final concentration of 0.5 mM. 5 μL of cell suspension/well was transferred to a 384-well plate and 2.5 μL of test compound or DMSO (minimum Min, maximum Max control) was added at various concentrations (10 μM in a 3-fold dilution, 10 concentration gradients) to the corresponding wells. After 30 minutes of incubation at room temperature, 2.5 μL vasopressin AVP solution was added to a final concentration of 2.25 nM to the test compound wells and 2.5 μL stimulation buffer to the minimum wells and incubated for 60 minutes at 25 C. Simultaneously cAMP standard sample (3-fold dilution from 5.6 μM, 10 concentration points) was prepared, and 10 μL of cAMP standard sample was transferred to corresponding well of a 384-well plate. The cAMP-d2 fluorescence and anti-cAMP antibody probes provided in the kit were diluted 20-fold with lysis buffer in the cAMP-GS HIRANGE kit, 5 μL of each was taken and added into each well of the 384-well plate in turn, mixed well with simple centrifugation performed, and incubated at 25° C. for 2 hours and then detect. Sample detection: fluorescence intensity was measured at 615 nm and 665 nm using the HTRF method in the Envision plate reader. Two duplicate wells were made for each sample to be tested, and 32 duplicate wells were made for Min and Max respectively.
The fluorescence intensity ratio FI665/615 at the wavelengths of 665 nm and 615 nm was calculated for each well sample. The standard curve was obtained by fitting the “log(inhibitor) vs response−variable slope (four parameters)” model in Prism 8.0 software with the logarithm of standard concentration as X and FI665/615X1000 as Y value. With the test well F1665/615X1000 as a Y value, the cAMP concentration corresponding to each sample was calculated according to the above standard curve in Prism 8.0 software.
The % Inhibition (inhibition percentage) was calculated as follows:
% inhibition=(Cmax−Ccmpd)/(Cmax−Cmm)×100
Where Cmax is the average calculated cAMP concentration in all maximum wells; Cmm is the average calculated cAMP concentration in all […]; Ccmpd is the calculated cAMP concentration of the test compound.
IC50s were calculated by non-linear regression using the “log(inhibitor) vs response−variable slope (four parameters)” model in Prism 8.0 software with % Inhibition (inhibition percentage) as Y value and log value of compound concentration as X, where Y=Bottom+(Top−Bottom)/(1+10^((Log IC50−X)*Hill Slope)).
(TR-FRET usually uses a lanthanide donor and a delayed reading to cut background.)

The nature of a further series: in vivo. More on the design: species or system mice. Here is the method:
Experimental Example 2: In Vivo Pharmacokinetic Experiments with Compounds of the Disclosure
This study evaluated in vivo pharmacokinetics in mice by intravenous and oral administration.
Experimental methods and conditions: male CD1 mice, aged 6-8 weeks, had free access to drinking water and were given a single intravenous injection of test compound 1 mg/Kg (vehicle 5% DMSO/10% Solutol/85% Saline), 5 min, 15 min, 30 min, 1 hr, 2 hr, 4 hr, 8 hr, 24 hr or oral gavage administration of 10 mg/kg (vehicle 5% DMSO/10% Solutol/85% Saline) after administration. Orbital blood was collected at 15 min, 30 min, 1 hr, 2 hr, 4 hr, 6 hr, 8 hr, and 24 hr after administration. No less than 50 μL of each sample was collected. Heparin sodium was used for anticoagulation. After collection, the sample was placed on ice, and the plasma was separated and tested within 1 hour. Plasma concentrations were determined by liquid-phase tandem mass spectrometry (LC/MS/MS). Pharmacokinetic parameters were calculated using Phoenix WinNonlin software. The results are shown in Tables 2 and 3 with Tofapriptan as control 1.

A further series concerns LLC-PK1 cells. The series is described as follows: Compound proliferation inhibition assay on LLC-PK1 cells (vasopressin-induced proliferation). It is filed as cell-based, Porcine. Conditions: AVP 10 nM, verapamil 5 μM, 48 hr, FIG. 1. The source says:
Experimental Example 3: Compound Proliferation Inhibition Assay on LLC-PK1 Cells
(1) Cell • Porcine kidney epithelial cells LLC-PK1: purchased from ATCC, Cat #CL-101
(2) Reagents: • Medium 199, Gibco (Cat #11150059) • Fetal Bovine Serum (FBS), Australia, Jitai (Cat #FND500) • Trypsin-EDTA (0.25%), phenol red, Gibco (Cat #25200072) • PBS, pH 7.4, Gibco (Cat #10010031) • DMSO (Dimethyl Sulfoxide), Sigma (Cat #D8418) • Poly-D-lysine, Gibco (Cat #A3890401) • Vasopressin AVP: Ji'er Biochemical Co. Ltd. Customization • Verapamil hydrochloride, MCE (Cat #HY-A0064) • AlamarBlue™ HS Cell Viability Reagent, Invitrogen (Cat #A50100) […]
LLC-PK1 cells were cultured in M199 medium supplemented with 10% fetal bovine serum at 37° C. with 5% CO2. […] LLC-PK1 cells were trypsinized, resuspended in serum-free M199 after centrifugation, counted, diluted to a cell suspension of 1×10^5/mL in serum-free M199 culture medium, and FBS was added to a final concentration of 1%. […] On the fifth day, the culture solution was carefully suctioned away, the cells were washed once with 200 μL PBS, 90 μL of M199 serum-free culture solution was carefully added, then 10 μL Alamarblue reagent was added, and the mixture was centrifuged at 300 rpm for 1 min, incubated at 37° C. for 2 h, and then detected. […]
Data quality control: S/B, i.e., Max well average/Min well average, is calculated and […] is considered QC pass.

The mark [2] stands for this setting: Human V2R Hela-Stable cell line OE2, AVP 2.25 nM, read-out: IC50 (nM), inhibition of the cAMP increase.

T1 sequence (P30518 whole entry): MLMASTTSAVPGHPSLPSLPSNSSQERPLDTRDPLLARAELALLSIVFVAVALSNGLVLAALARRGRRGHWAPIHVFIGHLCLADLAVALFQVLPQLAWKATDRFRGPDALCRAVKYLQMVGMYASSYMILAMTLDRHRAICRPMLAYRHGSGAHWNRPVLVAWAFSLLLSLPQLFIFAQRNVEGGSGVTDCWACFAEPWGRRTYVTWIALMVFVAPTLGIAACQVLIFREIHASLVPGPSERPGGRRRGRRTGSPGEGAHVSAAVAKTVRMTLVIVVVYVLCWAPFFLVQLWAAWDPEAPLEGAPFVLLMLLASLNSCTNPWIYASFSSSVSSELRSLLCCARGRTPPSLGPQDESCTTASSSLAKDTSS

In the case of `O=C(Nc1ccc(C(=O)N2CCC(F)(F)C3(CN3)c3cc(Cl)ccc32)cn1)c1ccccc1C(F)(F)F` (centres unmarked) [Compound 1], the IC50 (as a rule, the midpoint of a concentration-inhibition curve) in series [1] amounted to 10.9 nM. Also, in “in vivo” (male, CD1, mouse, iv, 1 mg/kg), the AUC0-inf stood at 719 ng·h/mL; the clearance (usually the volume of plasma or blood freed of the substance per unit of time) was 23.2 mL/min/kg; the half-life – broadly, the time needed for the level to fall by half in the phase considered – was 55.2 min. Moreover, in the series “in vivo” (male, CD1, mouse, po, 10 mg/kg), the AUC0-inf worked out at 4060 ng·h/mL; the Cmax – broadly, the highest concentration seen after dosing – was 1260 ng/mL; the bioavailability (in general, dose-corrected exposure relative to a reference, in per cent) was determined as 56%; the half-life was 36 min. In the series with LLC-PK1 cells (compared with control 1), the “inhibitory effect on the proliferation of LLC-PK1 cells” value was “stronger than that of control 1”. Besides, the “pro-proliferation effect on LLC-PK1 cells” value in the series with LLC-PK1 cells is listed as “no pro-proliferation effect”.
Turning to `Cc1ccccc1C(=O)Nc1ccc(C(=O)N2CCC(F)(F)C3(CN3)c3cc(Cl)ccc32)c(C)c1` (centres unmarked) [Compound 2], the IC50 in series [1] (setting [2]) is 9.35 nM.
With `Cc1ccccc1C(=O)Nc1ccc(C(=O)N2CCCC3(CN3)c3cc(Cl)ccc32)cn1` (centres unmarked) [Compound 4], in series [1] (setting [2]), the IC50 came to 3.14 nM.
For the molecule `O=C(Nc1ccc(C(=O)N2CCCC3(CN3)c3cc(Cl)ccc32)cn1)c1ccccc1C(F)(F)F` (centres unmarked) [Compound 5], in series [1] (setting [2]), the IC50 came to 4.67 nM.
On the same count and under the same terms, the value for `Cc1cc(NC(=O)c2ccccc2Cl)ccc1C(=O)N1CCCC2(CN2)c2cc(Cl)ccc21` (centres unmarked) [Compound 8] was 5.01 nM; that for `Cc1ccccc1C(=O)Nc1ccc(C(=O)N2CCCC3(CN3)c3cc(Cl)ccc32)c(C)c1` (centres unmarked) [Compound 9] was 4.88 nM.
`Cc1ccccc1C(=O)Nc1ccc(C(=O)N2CCCC3(CC3)c3cc(Cl)ccc32)c(C)c1` [Compound 16]: the IC50 in series [1] (setting [2]) stood at 11.2 nM.
On to `Cc1ccccc1C(=O)Nc1ccc(C(=O)N2CCCC3(CCC3)c3cc(Cl)ccc32)c(C)c1` [Compound 17], for which the IC50 in series [1] (setting [2]) turned out to be 10.4 nM.
For `Cc1ccccc1C(=O)Nc1ccc(C(=O)N2CCC(F)(F)C3(CN3)c3cc(Cl)ccc32)cn1` (centres unmarked) [Compound 20], the 50% inhibitory concentration (IC50) in series [1] (setting [2]) is 5.54 nM.
Consider `O=C(Nc1ccc(C(=O)N2CCC(F)(F)C3(CN3)c3cc(Cl)ccc32)cn1)c1ccccc1Cl` (centres unmarked) [Compound 21], for which, in series [1] (setting [2]), the IC50 stood at 4.51 nM.
`Cc1ccccc1C(=O)Nc1ccc(C(=O)N2CCCC(O)c3cc(Cl)ccc32)c(C)c1` (centres unmarked) [Control 1, Tofapriptan, reference compound]: in “in vivo” (mouse, iv, 1 mg/kg), the “AUC0-inf” value is 367 ng·h/mL, the “Cl” value amounted to 45.5 mL/min/kg and the “T1/2” value amounted to 31.8 min. In addition, in “in vivo” (mouse, po, 10 mg/kg), the “AUC0-inf” value came to 1613 ng·h/mL, the “Cmax” value is 1307 ng/mL, the “F (%)” value turned out to be 44% and the “T1/2” value turned out to be 94.8 min.
